Source: patent publication US20110172236A1, “SUBSTITUTED ARYL SULFONE DERIVATIVES AS CALCIUM CHANNEL BLOCKERS” (priority 2008, published 2011)

Biological target: T1, Human Cav2.2 channels (Homo sapiens, UniProt Q00975)
T1 construct: expressed in transfected cells
Assay: Fluorescent assay for Cav2.2 channels using potassium depolarization (Assay Example 1)
Type: cell-based
Conditions: pre-incubation potassium concentration not stated
Description: Assay Example 1: Fluorescent Assay for Cav2.2 Channels Using Potassium Depolarization to Initiate Channel Opening.
Human Cav2.2 channels were stably expressed in KEK293 cells along with alpha2-delta and beta subunits of voltage-gated calcium channels. An inwardly rectifying potassium channel (Kir2.3) was also expressed in these cells to allow more precise control of the cell membrane potential by extracellular potassium concentration. At low bath potassium concentration, the membrane potential is relatively negative, and is depolarized as the bath potassium concentration is raised. In this way, the bath potassium concentration can be used to regulate the voltage-dependent conformations of the channels. Compounds are incubated with cells in the presence of low (4 mM) potassium or elevated (12, 25 or 30 mM) potassium to determine the affinity for compound block of resting (closed) channels at 4 mM potassium or affinity for block of open and inactivated channels at 12, 25 or 30 mM potassium. After the incubation period, Cav2.2 channel opening is triggered by addition of higher concentration of potassium (70 mM final concentration) to further depolarize the cell. The degree of state-dependent block can be estimated from the inhibitory potency of compounds after incubation in different potassium concentrations.
Calcium influx through Cav2.2 channels is determined using a calcium-sensitive fluorescent dye in combination with a fluorescent plate reader. Fluorescent changes were measured with either a VIPR (Aurora Instruments) or FLIPR (Molecular Devices) plate reader.
• 1. Seed cells in Poly-D-Lysine Coated 96- or 384-well plate and keep in a 37° C.-10% CO2 incubator overnight • 2. Remove media^1, wash cells with 0.2 ml (96-well plate) or 0.05 ml (384-well plate) Dulbecco's Phosphate Buffered Saline (D-PBS) with calcium & magnesium (Invitrogen; 14040) • 3. Add 0.1 ml (96-well plate) or 0.05 ml (384-well plate) of 4 μM fluo-4 (Molecular Probes; F-14202) and 0.02% Pluronic acid (Molecular Probes; P-3000) prepared in D-PBS with calcium & magnesium (Invitrogen; 14040) supplemented with 10 mM Glucose & 10 mM Hepes/NaOH; pH 7.4 • 4. Incubate in the dark at 25° C. for 60-70 min • 5. Remove dye^2, wash cells with 0.1 ml (96-well plate) or 0.06 ml (384-well plate) of 4, 12, 25, or 30 mM Potassium Pre-polarization Buffer. (PPB) • 6. Add 0.1 ml (96-well plate) or 0.03 ml (384-well plate) of 4, 12, 25, 30 mM PPB. with or without test compound • 7. Incubate in the dark at 25° C. for 30 min • 8. Read cell plate on VIPR instrument, Excitation=480 nm, Emission 535 nm • 9. With VIPR continuously reading, add 0.1 ml (96-well plate) or 0.03 ml (384-well plate) of Depolarization Buffer, which is 2× the final assay concentration, to the cell plate.

T1 sequence (Q00975 whole entry): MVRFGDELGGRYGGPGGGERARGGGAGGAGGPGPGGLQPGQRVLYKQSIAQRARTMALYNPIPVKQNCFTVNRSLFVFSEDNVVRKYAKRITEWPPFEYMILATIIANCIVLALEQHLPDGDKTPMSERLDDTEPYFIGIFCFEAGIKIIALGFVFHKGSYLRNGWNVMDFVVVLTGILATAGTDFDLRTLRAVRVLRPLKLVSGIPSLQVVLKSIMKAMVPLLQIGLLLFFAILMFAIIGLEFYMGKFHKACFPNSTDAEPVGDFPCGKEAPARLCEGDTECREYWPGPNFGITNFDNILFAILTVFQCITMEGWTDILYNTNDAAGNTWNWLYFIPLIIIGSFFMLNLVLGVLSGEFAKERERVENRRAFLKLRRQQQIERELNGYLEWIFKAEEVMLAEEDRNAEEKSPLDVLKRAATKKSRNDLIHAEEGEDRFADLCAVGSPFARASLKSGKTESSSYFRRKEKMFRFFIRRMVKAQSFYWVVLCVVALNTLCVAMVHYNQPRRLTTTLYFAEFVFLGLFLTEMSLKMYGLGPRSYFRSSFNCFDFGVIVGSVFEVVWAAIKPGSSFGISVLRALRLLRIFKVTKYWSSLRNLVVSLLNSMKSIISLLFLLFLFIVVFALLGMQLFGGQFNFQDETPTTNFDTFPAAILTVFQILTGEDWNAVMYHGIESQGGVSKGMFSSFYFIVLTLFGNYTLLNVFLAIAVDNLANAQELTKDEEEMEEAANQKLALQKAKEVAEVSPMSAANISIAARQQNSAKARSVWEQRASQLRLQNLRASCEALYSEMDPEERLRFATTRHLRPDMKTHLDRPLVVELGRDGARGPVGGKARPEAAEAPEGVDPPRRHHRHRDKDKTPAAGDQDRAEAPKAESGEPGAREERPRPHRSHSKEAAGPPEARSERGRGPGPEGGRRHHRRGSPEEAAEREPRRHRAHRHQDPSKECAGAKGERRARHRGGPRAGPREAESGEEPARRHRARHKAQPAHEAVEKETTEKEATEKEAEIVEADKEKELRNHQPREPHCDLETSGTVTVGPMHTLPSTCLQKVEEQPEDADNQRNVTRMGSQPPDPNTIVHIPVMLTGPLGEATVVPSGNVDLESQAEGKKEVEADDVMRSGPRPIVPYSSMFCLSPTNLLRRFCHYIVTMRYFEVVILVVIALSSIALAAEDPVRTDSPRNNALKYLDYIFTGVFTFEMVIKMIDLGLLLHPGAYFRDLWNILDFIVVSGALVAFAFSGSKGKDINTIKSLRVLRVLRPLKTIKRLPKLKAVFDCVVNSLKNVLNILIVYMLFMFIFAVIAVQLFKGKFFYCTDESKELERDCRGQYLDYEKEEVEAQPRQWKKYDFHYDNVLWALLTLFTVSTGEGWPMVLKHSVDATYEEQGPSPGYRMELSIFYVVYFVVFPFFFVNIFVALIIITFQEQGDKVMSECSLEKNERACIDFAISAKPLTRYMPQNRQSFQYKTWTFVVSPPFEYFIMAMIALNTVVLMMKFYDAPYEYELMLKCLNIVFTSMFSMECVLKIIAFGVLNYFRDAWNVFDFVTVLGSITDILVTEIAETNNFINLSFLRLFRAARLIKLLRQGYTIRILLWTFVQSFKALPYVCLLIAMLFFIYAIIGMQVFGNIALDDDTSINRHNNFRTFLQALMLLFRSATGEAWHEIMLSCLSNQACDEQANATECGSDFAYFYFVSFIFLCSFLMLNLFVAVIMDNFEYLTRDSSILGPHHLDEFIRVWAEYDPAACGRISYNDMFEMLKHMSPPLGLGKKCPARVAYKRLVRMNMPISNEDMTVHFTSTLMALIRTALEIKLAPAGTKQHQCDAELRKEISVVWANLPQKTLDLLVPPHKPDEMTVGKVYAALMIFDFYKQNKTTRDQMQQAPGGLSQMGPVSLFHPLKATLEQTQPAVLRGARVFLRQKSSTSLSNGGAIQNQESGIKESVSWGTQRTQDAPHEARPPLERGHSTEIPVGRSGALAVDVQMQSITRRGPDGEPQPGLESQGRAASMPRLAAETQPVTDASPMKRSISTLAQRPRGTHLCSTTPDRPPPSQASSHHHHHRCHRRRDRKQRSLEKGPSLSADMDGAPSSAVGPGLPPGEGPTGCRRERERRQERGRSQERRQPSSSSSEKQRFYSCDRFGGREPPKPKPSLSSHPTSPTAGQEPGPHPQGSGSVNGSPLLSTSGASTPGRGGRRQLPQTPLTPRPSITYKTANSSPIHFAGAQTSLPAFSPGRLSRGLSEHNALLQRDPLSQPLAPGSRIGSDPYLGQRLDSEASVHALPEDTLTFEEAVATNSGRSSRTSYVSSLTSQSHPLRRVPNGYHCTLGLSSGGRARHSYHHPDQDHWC

Row | SMILES | IC50 [µM]
1 | CC(C)(C1CCN(Cc2ccc(F)cc2)C(=O)C1)S(=O)(=O)c1cccc(C(F)(F)F)c1 (stereo not drawn) | 0.22
2 | CC(C)(C1CCN(c2ccccc2)C(=O)C1)S(=O)(=O)c1cccc(C(F)(F)F)c1 (stereo not drawn) | 0.36
3 | CC(C)([C@H]1CCN(c2ccc(C(F)(F)F)cn2)C(=O)C1)S(=O)(=O)c1cccc(C(F)(F)F)c1 | 0.64
4 | CC(C)([C@@H]1CCN(c2ccc(C(F)(F)F)cn2)C(=O)C1)S(=O)(=O)c1cccc(C(F)(F)F)c1 | 0.28
5 | CC(C)(C1CCC(=O)N(Cc2ccc(Cl)cc2)C1)S(=O)(=O)c1cccc(C(F)(F)F)c1 (stereo not drawn) | 0.89
6 | CC(C)(C1CC(=O)N(c2ccc(C(F)(F)F)cc2)C1)S(=O)(=O)c1cccc(C(F)(F)F)c1 (stereo not drawn) | 0.79
